Test results reported in patent publication US12077503B2, “Substituted cyclic amides and their use as herbicides” (FMC CORPORATION, priority 2015, dated 2024).
Where two headings read alike, the source gives them in different places.

What was measured:
Format in all cases: in vivo
[1] = tested on: barnyardgrass (Echinochloa crus-galli); experiment: Test B flooded paddy test; conditions: Echinochloa crus-galli, 250 g ai/ha, Flood; 0 to 100 scale where 0 is no effect and 100 is complete control; read-out: Barnyardgrass plant response rating
Method in brief: (§1)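 Percent control, visually estimated after 13–15 d in the greenhouse on a 0–100 basis, compares treated pots with untreated ones; compound was put into paddy water 3 cm above the soil when plants had two leaves.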

[2] = tested on: ducksalad (Heteranthera limosa); experiment: Test B flooded paddy test; conditions: Heteranthera limosa, 250 g ai/ha, Flood; 0 to 100 scale where 0 is no effect and 100 is complete control; read-out: Ducksalad plant response rating
Method in brief: as §1

rice (Oryra sativa) = experiment: Test B flooded paddy test; conditions: Oryza sativa, 250 g ai/ha, Flood; 0 to 100 scale where 0 is no effect and 100 is complete control; read-out: Rice plant response rating
Method in brief: as §1

[3] = tested on: sedge, umbrella (small-flower umbrella sedge, Cyperus difformis); experiment: Test B flooded paddy test; conditions: Cyperus difformis, 250 g ai/ha, Flood; 0 to 100 scale where 0 is no effect and 100 is complete control; read-out: Sedge, Umbrella plant response rating
Method in brief: as §1

[4] = tested on: barnyardgrass (Echinochloa crus-galli); experiment: Test A postemergence; conditions: Echinochloa crus-galli, post-emergence, 240 h, postemergence, read-out: Barnyardgrass plant response rating; for pest or weed control at 125 g/ha: 125 g ai/ha, visual injury on 0 to 100 scale (0 no effect, 100 complete control), approx. 10 d; for pest or weed control at 500 g/ha: 500 g ai/ha, 0 to 100 scale, 0 is no effect, 100 is complete control
Method in brief: (§2)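 Each rating is a visual injury score from 0 to 100 given about 10 d after treatment, judged against untreated controls kept alongside in the greenhouse. In loam soil–sand blend, seeds got a preemergence directed soil spray, while postemergence plants were 2 to 10 cm tall at spraying.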

[5] = tested on: blackgrass (Alopecurus myosuroides); experiment: Test A postemergence; conditions: Alopecurus myosuroides, post-emergence, 240 h, postemergence, read-out: Blackgrass plant response rating; for pest or weed control at 125 g/ha: 125 g ai/ha, visual injury on 0 to 100 scale (0 no effect, 100 complete control), approx. 10 d; for pest or weed control at 500 g/ha: 500 g ai/ha, 0 to 100 scale, 0 is no effect, 100 is complete control
Method in brief: as §2

[6] = tested on: pigweed (Amaranthus retroflexus); experiment: Test A postemergence; conditions: Amaranthus retroflexus, post-emergence, 240 h, postemergence, read-out: Pigweed plant response rating; for pest or weed control at 125 g/ha: 125 g ai/ha, visual injury on 0 to 100 scale (0 no effect, 100 complete control), approx. 10 d; for pest or weed control at 500 g/ha: 500 g ai/ha, 0 to 100 scale, 0 is no effect, 100 is complete control
Method in brief: as §2

Kochia (Kochia scoparia) [7] = experiment: Test A postemergence; conditions: Bassia scoparia, post-emergence, 240 h, postemergence, read-out: Kochia plant response rating; for pest or weed control at 125 g/ha: 125 g ai/ha, visual injury on 0 to 100 scale (0 no effect, 100 complete control), approx. 10 d; for pest or weed control at 500 g/ha: 500 g ai/ha, 0 to 100 scale, 0 is no effect, 100 is complete control
Method in brief: as §2

[8] = tested on: barnyardgrass (Echinochloa crus-galli); experiment: Test A preemergence; conditions: Echinochloa crus-galli, pre-emergence, 240 h; for pest or weed control at 125 g/ha: 125 g ai/ha; for pest or weed control at 500 g/ha: 500 g ai/ha, visual injury rating about 10 d after treatment, 0 to 100 scale (0 no effect, 100 complete control)
Method in brief: as §2

[9] = tested on: ragweed (common ragweed, Ambrosia elatior); experiment: Test A preemergence; conditions: Ambrosia artemisiifolia, pre-emergence, 240 h, preemergence, read-out: Ragweed plant response rating; for pest or weed control at 125 g/ha: 125 g ai/ha, 0 to 100 scale where 0 is no effect and 100 is complete control, approx. 10 d; for pest or weed control at 500 g/ha: 500 g ai/ha, visual injury rating about 10 d after treatment, 0 to 100 scale (0 no effect, 100 complete control)
Method in brief: as §2

[10] = tested on: giant foxtail (Setaria faberii); experiment: Test A preemergence; conditions: Setaria faberi, pre-emergence, 240 h; for pest or weed control at 125 g/ha: 125 g ai/ha; for pest or weed control at 500 g/ha: 500 g ai/ha, visual injury rating about 10 d after treatment, 0 to 100 scale (0 no effect, 100 complete control)
Method in brief: as §2

[11] = tested on: ryegrass, Italian (Italian ryegrass, Lolium multiflorum); experiment: Test A preemergence; conditions: Lolium multiflorum, pre-emergence, 240 h, preemergence, read-out: Ryegrass, Italian plant response rating; for pest or weed control at 125 g/ha: 125 g ai/ha, 0 to 100 scale where 0 is no effect and 100 is complete control, approx. 10 d; for pest or weed control at 500 g/ha: 500 g ai/ha, visual injury rating about 10 d after treatment, 0 to 100 scale (0 no effect, 100 complete control)
Method in brief: as §2

[12] = tested on: pigweed (Amaranthus retroflexus); experiment: Test A preemergence; conditions: Amaranthus retroflexus, pre-emergence, 240 h, preemergence, read-out: Pigweed plant response rating; for pest or weed control at 125 g/ha: 125 g ai/ha, 0 to 100 scale where 0 is no effect and 100 is complete control, approx. 10 d; for pest or weed control at 500 g/ha: 500 g ai/ha, visual injury rating about 10 d after treatment, 0 to 100 scale (0 no effect, 100 complete control)
Kochia (Kochia scoparia) [13] = experiment: Test A preemergence; conditions: Bassia scoparia, pre-emergence, 240 h, preemergence, read-out: Kochia plant response rating; for pest or weed control at 125 g/ha: 125 g ai/ha, 0 to 100 scale where 0 is no effect and 100 is complete control, approx. 10 d; for pest or weed control at 500 g/ha: 500 g ai/ha, visual injury rating about 10 d after treatment, 0 to 100 scale (0 no effect, 100 complete control)
Method in brief: as §2

[14] = preemergence, read-out: Barnyardgrass plant response rating
[15] = preemergence, read-out: Foxtail, Giant plant response rating
[16] = preemergence, 0 to 100 scale where 0 is no effect and 100 is complete control, approx. 10 d, read-out: Barnyardgrass plant response rating
[17] = preemergence, 0 to 100 scale where 0 is no effect and 100 is complete control, approx. 10 d, read-out: Foxtail, Giant plant response rating

Row | Structure (SMILES) | pest or weed control at 250 g/ha [1] | pest or weed control at 250 g/ha [2] | pest or weed control at 250 g/ha (rice (Oryra sativa)) | pest or weed control at 250 g/ha [3] | pest or weed control at 125 g/ha [4] | pest or weed control at 500 g/ha [4] | pest or weed control at 125 g/ha [5] | pest or weed control at 500 g/ha [5] | pest or weed control at 125 g/ha [6] | pest or weed control at 500 g/ha [6] | pest or weed control at 125 g/ha (Kochia (Kochia scoparia) [7]) | pest or weed control at 500 g/ha (Kochia (Kochia scoparia) [7]) | pest or weed control at 500 g/ha [8, 14] | pest or weed control at 125 g/ha [9] | pest or weed control at 500 g/ha [9] | pest or weed control at 500 g/ha [10, 15] | pest or weed control at 125 g/ha [11] | pest or weed control at 500 g/ha [11] | pest or weed control at 125 g/ha [12] | pest or weed control at 500 g/ha [12] | other results
1 | CCc1cccc([C@H]2CCNC(=O)[C@@H]2C(=O)Nc2cccc(F)c2F)c1 [Compound 1058] | 35% | 0% | 25% | 0% | 70% | 90% | 30% | 40% | 0% | 0% | 0% | 20% | 100% | 0% | 0% | 100% | 0% | 40% | 0% | 0% | pest or weed control at 125 g/ha ([8]; Preemergence, visual injury rating after approximately 10 d, read-out: Barnyardgrass plant response rating (0 to 100 scale, 0 is no effect, 100 is complete control)): 90%; pest or weed control at 125 g/ha ([10]; Preemergence, visual injury rating after approximately 10 d, read-out: Foxtail, Giant plant response rating (0 to 100 scale, 0 is no effect, 100 is complete control)): 90%; pest or weed control at 125 g/ha (Kochia (Kochia scoparia) [13]): 0%; pest or weed control at 500 g/ha (Kochia (Kochia scoparia) [13]): 30%
2 | CN1C[C@H](c2cc(F)cc(F)c2)[C@@H](C(=O)Nc2ncccc2Cl)C1=O [Compound 1097] | 0% | 0% | 0% | 0% | 0% | 0% | 0% | 0% | 0% | 0% | 0% | 0% | 0% | 0% | 0% | 0% | 0% | 0% | 0% | 0% | pest or weed control at 125 g/ha [8, 16]: 0%; pest or weed control at 125 g/ha [10, 17]: 0%; pest or weed control at 125 g/ha (Kochia (Kochia scoparia) [13]): 0%; pest or weed control at 500 g/ha (Kochia (Kochia scoparia) [13]): 0%
3 | Cc1cc([C@H]2CN(C)C(=O)[C@@H]2C(=O)Nc2ccccc2F)ccc1Br [Compound 1098] | 0% | 90% | 0% | 0% | 80% | 90% | 20% | 30% | 0% | 0% | 20% | 60% | 90% | 0% | 0% | 90% | 20% | 50% | 0% | 0% | pest or weed control at 125 g/ha [8, 16]: 90%; pest or weed control at 125 g/ha [10, 17]: 90%; pest or weed control at 125 g/ha (Kochia (Kochia scoparia) [13]): 20%; pest or weed control at 500 g/ha (Kochia (Kochia scoparia) [13]): 70%
4 | Cc1cc([C@H]2CN(C)C(=O)[C@@H]2C(=O)Nc2cccc(F)c2F)ccc1Br [Compound 1099] | 0% | 100% | 0% | 0% | 70% | 80% | 20% | 40% | 20% | 50% | 30% | 60% | 90% | 20% | 60% | 90% | 50% | 70% | 0% | 30% | pest or weed control at 125 g/ha [8, 16]: 90%; pest or weed control at 125 g/ha [10, 17]: 90%; pest or weed control at 125 g/ha (Kochia (Kochia scoparia) [13]): 60%; pest or weed control at 500 g/ha (Kochia (Kochia scoparia) [13]): 70%
